Test [1] deals with FGF-2-heparin interaction (Homo sapiens, UniProt P09038). Nature of the test: Competition SPR on the FGF-2-heparin interaction. It counts as binding. Conditions: FGF-2 50 nM pre-mixed with compound, biotinylated heparin on SA sensor chip. As to the method: In order to gain more insights into the structure-activity relationship between heparin and FGF-2, the competition assay was performed by the Linhardt group (FIG. 4). Biotinylated heparin was immobilized on the biosensor, and 27 pseudo-hexasaccharides (10 uM) was mixed with FGF-2 (50 nM) individually. […] For IC50 measurements, biotinylated heparin was immobilized on the SA sensor chip as described above, and FGF-2 (50 nM) was pre-mixed with different concentrations of pseudo-hexasaccharides. […] According to competition SPR results, successive fully sulfated disaccharide modules are required for potent competitive activity.

A further test concerns the target FGF-2 (Homo sapiens, UniProt P09038). The test can be described thus: Direct binding to immobilized FGF-2 by surface plasmon resonance (SPR). Conditions: FGF-2 immobilized on CDH sensor chip. The text has this:
FGF-2 was immobilized on CDH sensor chip surface through EDC/NHS coupling, and fully sulfated (50), O-sulfated (50z) and N-sulfated (50m) pseudo-hexasaccharides were selected as analytes. […] The SPR results correlated well with that of heparin hexasaccharides (36, 51, 52) (Chem. Eur. J. 2006, 12 (34), 8664-8686).
FGF-2 was immobilized on sensor chip by primary amine coupling reaction. The surface of a CDH sensor chip (ForteBio, Inc., Molecular Devices, USA) was activated using freshly mixed N-hydroxysuccimide (NHS; 0.05 M) and 1-(3-(dimethylamino)propyl)-ethylcarbodiimide (EDC; 0.2 M) (1/1, v/v) in water, followed by the injection of FGF-2 (50 ug/ml) in PBS buffer. The remaining active esters were quenched by ethanolamine (1.0 M). All measurements were performed using 0.01% Tween 20 PBS buffer. Aqueous NaCl (2.0 M) was employed for regeneration to achieve baseline status.
For orientation: SPR reads the build-up and loss of mass on a sensor chip optically.

Chain of FGF-2-heparin interaction (P09038 143-288, species assumed): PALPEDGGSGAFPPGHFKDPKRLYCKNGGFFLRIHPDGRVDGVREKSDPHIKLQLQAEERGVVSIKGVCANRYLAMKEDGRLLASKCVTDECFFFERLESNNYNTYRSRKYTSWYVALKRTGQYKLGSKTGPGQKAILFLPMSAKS
Chain of FGF-2 (P09038 143-288, species assumed): as above

In the case of `CC(=O)NCCOC1OC(C(=O)O)C(OC2OC(CO)C(OCCC(=O)NCCOC3OC(C(=O)O)C(OC4OC(COS(=O)(=O)O)C(OCCC(=O)NCCOC5OC(C(=O)O)C(OC6OC(COS(=O)(=O)O)C(OCCC(=O)O)C(O)C6NS(=O)(=O)O)C(O)C5OS(=O)(=O)O)C(O)C4NS(=O)(=O)O)C(O)C3OS(=O)(=O)O)C(O)C2NS(=O)(=O)O)C(O)C1O` (centres unmarked) [Compound 50a], the IC50 in test [1] worked out at 10.8 µM.
Consider `CC(=O)NCCOC1OC(C(=O)O)C(OC2OC(COS(=O)(=O)O)C(OCCC(=O)NCCOC3OC(C(=O)O)C(OC4OC(COS(=O)(=O)O)C(OCCC(=O)NCCOC5OC(C(=O)O)C(OC6OC(COS(=O)(=O)O)C(OCCC(=O)O)C(O)C6NS(=O)(=O)O)C(O)C5OS(=O)(=O)O)C(O)C4NS(=O)(=O)O)C(O)C3OS(=O)(=O)O)C(O)C2NC(C)=O)C(O)C1OS(=O)(=O)O` (centres unmarked) [Compound 50b], for which, in test [1], the IC50 was found to be 4 µM.
In the case of `CC(=O)NCCOC1OC(C(=O)O)C(OC2OC(COS(=O)(=O)O)C(OCCC(=O)NCCOC3OC(C(=O)O)C(OC4OC(COS(=O)(=O)O)C(OCCC(=O)NCCOC5OC(C(=O)O)C(OC6OC(COS(=O)(=O)O)C(OCCC(=O)O)C(O)C6NC(C)=O)C(O)C5OS(=O)(=O)O)C(O)C4NS(=O)(=O)O)C(O)C3OS(=O)(=O)O)C(O)C2NS(=O)(=O)O)C(O)C1OS(=O)(=O)O` (centres unmarked) [Compound 50r], the IC50 in test [1] is 3.5 µM.
On FGF-2 (compound as analyte), `CC(=O)NCCOC1OC(C(=O)O)C(OC2OC(COS(=O)(=O)O)C(OCCC(=O)NCCOC3OC(C(=O)O)C(OC4OC(COS(=O)(=O)O)C(OCCC(=O)NCCOC5OC(C(=O)O)C(OC6OC(COS(=O)(=O)O)C(OCCC(=O)O)C(O)C6NC(C)=O)C(O)C5OS(=O)(=O)O)C(O)C4NC(C)=O)C(O)C3OS(=O)(=O)O)C(O)C2NC(C)=O)C(O)C1OS(=O)(=O)O` (centres unmarked) [Compound 50z] had a Kd of 0.94 µM.
Regarding “N-Acetamidoethyl O-(4-O-carboxyethyl-2-deoxy-2-sulfoamino-1-thio-α-D-glucopyranoside)-(1→4)-O-(6-O-carboxyl-1-thio-α-L-idopyranosiduronate)-(1→4)-O-(2-deoxy-2-sulfoamino-1-thio-α-D-glucopyranoside)-(1→4)-O-(6-O-carboxyl-1-thio-α-L-idopyranosiduronate)-(1→4)-O-(2-deoxy-2-sulfoamino-1-thio-α-D-glucopyranoside)-(1→4)-O-(6-O-carboxyl-1-thio-α-L-idopyranosiduronate) [Compound 50m]”, on FGF-2, the “binding to FGF-2 (in words)” value was “weak signal”.

One may read the IC50 as the concentration that inhibits the measured activity by half. As a reminder, the Kd is a measure of binding affinity in units of concentration. A low value points to higher affinity.

The record behind these values is US12378278B2, “Mimetics of heparin oligosaccharides” (Board of Trustees of Michigan State University, priority 2019, dated 2025).
